Laboratory results published in PMC6818106, “Synthesis of thiazolidin-4-ones and thiazinan-4-ones from 1-(2-aminoethyl)pyrrolidine as acetylcholinesterase inhibitors” (Journal of Enzyme Inhibition and Medicinal Chemistry, 2019).

Experiments:
AChE [1] = target: T1, AChE (Rattus norvegicus, UniProt P37136); test: In vitro AChE activity (Ellman method) in hippocampus homogenate; format: biochemical; details: for IC50: rat hippocampus homogenate, calculated with GraphPad Prism 5, read-out: IC50 of AChE inhibition, Hippocampus; for concentration from which AChE activity was inhibited, hippocampus: vs control group (water and methanol), p < .05, tested 0.1-250 μM
T1 construct: the use of crude homogenised from rat’s brain structures, as used in the present work; from tissue; host or cells: Wistar rat cerebral cortex, homogenate supernatant
T1 sequence (P37136 32-614): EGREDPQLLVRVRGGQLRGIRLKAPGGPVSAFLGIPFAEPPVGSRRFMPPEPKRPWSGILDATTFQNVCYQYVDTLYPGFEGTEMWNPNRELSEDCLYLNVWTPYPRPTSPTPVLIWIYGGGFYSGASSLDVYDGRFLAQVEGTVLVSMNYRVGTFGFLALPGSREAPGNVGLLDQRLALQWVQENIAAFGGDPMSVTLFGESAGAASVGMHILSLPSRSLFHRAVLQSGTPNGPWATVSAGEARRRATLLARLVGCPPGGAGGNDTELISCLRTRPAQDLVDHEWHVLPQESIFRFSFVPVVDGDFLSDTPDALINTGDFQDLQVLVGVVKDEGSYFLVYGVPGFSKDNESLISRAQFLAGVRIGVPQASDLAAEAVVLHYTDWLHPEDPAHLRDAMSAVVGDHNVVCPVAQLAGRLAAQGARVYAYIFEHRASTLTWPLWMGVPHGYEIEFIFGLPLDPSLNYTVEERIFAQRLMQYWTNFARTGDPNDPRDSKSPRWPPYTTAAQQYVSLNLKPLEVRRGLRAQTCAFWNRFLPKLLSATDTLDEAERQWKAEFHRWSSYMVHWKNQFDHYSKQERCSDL
Method: (§1) In vitro was evaluated the potential inhibition of thiazolidin-4-ones and thiazinan-4-ones against AChE activity enzyme in hippocampus and cerebral cortex of Wistar rats (60 days, 250–300 g), since it is well described that these two structures in the brain play an important role in memory. All procedures involving the animals were approved by the Committee of Ethics in Animal Experimentation of UFPel (CEEA 9219). The animals were submitted to euthanasia and the brain was removed. Subsequently, the hippocampus and cerebral cortex were separated and homogenised in buffer Tris HCl 10 mM (pH 7.4). The homogenates were centrifuged at 1800 rpm for 10 min and the supernatant was used for in vitro analyses of the potential inhibitory effect of thiazolidin-4-one and thiazinan-4-ones on AChE activity.
(§2) The compounds were solubilised in methanol and prepared in different concentrations (0.1, 0.5, 1, 5, 10, 25, 50, 100 and 250 μM). […] The thiocholine, in turn, reacts with DTNB to form a chromophore, 5-thio-2-nitrobenzoic, which is quantified spectrophotometrically at 412 nm. The enzymatic activity was expressed in μmols of AcSCh/h/mg protein. Proteins were determined by the method of Bradford[29] using the Coomassie Blue reagent. Bovine albumin was used as standard.

AChE [2] = target: T1, AChE; test: In vitro AChE activity (Ellman method) in cerebral cortex homogenate; format: biochemical; details: for IC50: rat cerebral cortex homogenate, calculated with GraphPad Prism 5, read-out: IC50 of AChE inhibition, Cortex; for concentration from which AChE activity was inhibited, cerebral cortex: vs control group (water and methanol), p < .05, tested 0.1-250 μM
Method: as §1, §2

cortical astrocytes = test: Cytotoxicity in cortical astrocyte primary culture (MTT cell viability); format: cell-based; details: 100 μM, 48 h and 72 h; p > .05
Method: In the evaluation of the cytotoxicity of the thiazolidin-4-ones and thiazinan-4-ones in astrocytes, Wistar rats (1–2 days) were used to obtain cortical astrocytes, which were cultured in 96-well plates (3x10^4 per well) and maintained with Dulbecco’s modified Eagle’s medium (DMEM) supplemented with 10% Bovine Foetal Serum (FBS)[30]. Cells were maintained under standard conditions (5% CO2, 37 °C and humidified atmosphere) for 15 days, receiving periodic exchange of culture medium until treatments were received. After time and maturation, the astrocytes were treated with the compounds at the concentration of 100 μM. Cells were exposed to this concentration for 48 h and 72 h. After treatment, cell viability was analysed by the test of 3-(4,5-dimethylthiazol-2yl)-2,5-diphenyltetrazolium bromide (MTT). This method consists of measuring the number of cells with the metabolically active mitochondria, based on the reduction of the tetrazolium salt to the formazan crystals. The absorbance was determined on a microplate reader at 492 nm. The absorbance is linearly proportional to the number of cells with active mitochondria, indicating how many viable cells remained at the end of the treatment.

Molecule | IC50 (AChE [1]) | IC50 (AChE [2]) | concentration from which AChE activity was inhibited, cerebral cortex (AChE [2]) | concentration from which AChE activity was inhibited, hippocampus (AChE [1]) | cell viability of astrocyte primary culture (MTT) (cortical astrocytes) | AChE inhibition activity (qualitative) (AChE [1]; disubstituted aryl, tissue not stated in the sentence (follows hippocampus results))
O=C1CCSC(c2cccc(O)c2)N1CCN1CCCC1 (centres unmarked) [6o, 2-(3-hydroxyphenyl)-3-(2-(pyrrolidin-1-yl)ethyl)-1,3-thiazinan-4-one] | 69.6 µM | 25.7 µM | ≥ 25 µM |  |  | 
O=C1CSC(c2ccc([N+](=O)[O-])cc2)N1CCN1CCCC1 (centres unmarked) [5j, 2-(4-nitrophenyl)-3-(2-(pyrrolidin-1-yl)ethyl)thiazolidin-4-one] | 8.68 µM | 28.1 µM | ≥ 1 µM | ≥ 1 µM | did not change de cell viability | 
O=C1CCSC(c2ccccc2)N1CCN1CCCC1 (centres unmarked) [6a, 2-phenyl-3-(2-(pyrrolidin-1-yl)ethyl)-1,3-thiazinan-4-one] | 5.2 µM | 7.4 µM | ≥ 5 µM | ≥ 1 µM | did not change de cell viability | 
O=C1CSC(c2ccccc2)N1CCN1CCCC1 (centres unmarked) [5a, 2-phenyl-3-(2-(pyrrolidin-1-yl)ethyl)thiazolidin-4-one] | 30.9 µM | > 250 µM |  |  |  | 
COc1ccc(C2SCC(=O)N2CCN2CCCC2)cc1 (centres unmarked) [5n, 2-(4-methoxyphenyl)-3-(2-(pyrrolidin-1-yl)ethyl)thiazolidin-4-one] | > 250 µM | > 250 µM |  |  |  | 
O=C1CCSC(c2cccc([N+](=O)[O-])c2)N1CCN1CCCC1 (centres unmarked) [6i, 2-(3-nitrophenyl)-3-(2-(pyrrolidin-1-yl)ethyl)-1,3-thiazinan-4-one] | 29.4 µM | 50.6 µM | ≥ 50 µM | ≥ 50 µM |  | 
O=C1CCSC(c2ccc(Cl)cc2)N1CCN1CCCC1 (centres unmarked) [6g, 2-(4-chlorophenyl)-3-(2-(pyrrolidin-1-yl)ethyl)-1,3-thiazinan-4-one] | 50.5 µM | 57.2 µM |  |  |  | 
O=C1CCSC(c2ccccc2[N+](=O)[O-])N1CCN1CCCC1 (centres unmarked) [6h, 2-(2-nitrophenyl)-3-(2-(pyrrolidin-1-yl)ethyl)-1,3-thiazinan-4-one] | 92.8 µM | 11 µM | ≥ 1 µM | 5 µM | did not change de cell viability | 
O=C1CSC(c2cccc([N+](=O)[O-])c2)N1CCN1CCCC1 (centres unmarked) [5i, 2-(3-nitrophenyl)-3-(2-(pyrrolidin-1-yl)ethyl)thiazolidin-4-one] | 81.6 µM | 10.2 µM | ≥ 10 µM | ≥ 10 µM |  | 
Cc1ccc(C2SCC(=O)N2CCN2CCCC2)cc1 (centres unmarked) [5k, 3-(2-(pyrrolidin-1-yl)ethyl)-2-p-tolylthiazolidin-4-one] | > 250 µM | > 250 µM |  |  |  | 
O=C1CCSC(c2ccc([N+](=O)[O-])cc2)N1CCN1CCCC1 (centres unmarked) [6j, 2-(4-nitrophenyl)-3-(2-(pyrrolidin-1-yl)ethyl)-1,3-thiazinan-4-one] | 9.32 µM | 40.1 µM | ≥ 10 µM | ≥ 1 µM | did not change de cell viability | 
2-(2-methoxyphenyl)-3-(2-(pyrrolidin-1-yl)ethyl)-1,3-thiazinan-4-one [6l] | 84.9 µM | > 250 µM | ≥ 100 µM | ≥ 100 µM |  | 
O=C1CSC(c2ccc(Cl)cc2)N1CCN1CCCC1 (centres unmarked) [5g, 2-(4-chlorophenyl)-3-(2-(pyrrolidin-1-yl)ethyl)thiazolidin-4-one] | > 250 µM | > 250 µM |  |  |  | 
COc1cccc(C2SCCC(=O)N2CCN2CCCC2)c1OC (centres unmarked) [6p, 2-(2,3-dimethoxyphenyl)-3-(2-(pyrrolidin-1-yl)ethyl)-1,3-thiazinan-4-one] |  |  |  |  |  | decrease in activity
O=C1CSC(c2ccccc2[N+](=O)[O-])N1CCN1CCCC1 (centres unmarked) [5h, 2-(2-nitrophenyl)-3-(2-(pyrrolidin-1-yl)ethyl)thiazolidin-4-one] | 105 µM | > 250 µM |  |  |  | 
O=C1CSC(c2cccc(O)c2)N1CCN1CCCC1 (centres unmarked) [5o, 2-(3-hydroxyphenyl)-3-(2-(pyrrolidin-1-yl)ethyl)thiazolidin-4-one] | 30.6 µM | 27.6 µM |  |  |  | 
COc1cccc(C2SCCC(=O)N2CCN2CCCC2)c1 (centres unmarked) [6m, 2-(3-methoxyphenyl)-3-(2-(pyrrolidin-1-yl)ethyl)-1,3-thiazinan-4-one] | 90.3 µM | 24 µM | ≥ 25 µM |  |  | 
COc1ccc(C2SCCC(=O)N2CCN2CCCC2)cc1 (centres unmarked) [6n, 2-(4-methoxyphenyl)-3-(2-(pyrrolidin-1-yl)ethyl)-1,3-thiazinan-4-one] | 17 µM | 22.2 µM | ≥ 5 µM |  | did not change de cell viability | 
Cc1ccc(C2SCCC(=O)N2CCN2CCCC2)cc1 (centres unmarked) [6k, 3-(2-(pyrrolidin-1-yl)ethyl)-2-(p-tolyl)-1,3-thiazinan-4-one] | 4.46 µM | 6.83 µM | ≥ 5 µM | ≥ 1 µM | did not change de cell viability | 
